Results from PMC2995054 (Nucleic Acids Research, 2010).

Each compound was assayed against vaccinia virus D10 decapping enzyme (His-tagged, WT) (Vaccinia virus, UniProt P04312) (assay: biochemical). Conditions: not given.
Format: biochemical
For `Cc1cn([C@@H]2O[C@H](COP(=O)(O)OP(=O)(O)OP(=O)(O)O)[C@@H](O)[C@H]2O)c(=O)nc1N` [5-methyl-CTP], the “Inhibition of the decapping reaction (in words)” value (from here on “Inhibition”) was “unable to affect the activity of the enzyme”.
`Cc1cn([C@@H]2O[C@H](COP(=O)(O)OP(=O)(O)OP(=O)(O)O)[C@@H](O)[C@H]2O)c(=O)[nH]c1=O` [5-methyl-UTP] was tested, and the “Inhibition” value was “unable to affect the activity of the enzyme”.
In the case of `Nc1ccn([C@@H]2O[C@H](COP(=O)(O)OP(=O)(O)O)[C@@H](O)[C@H]2O)c(=O)n1` [CDP], the “Inhibition” value is reported as “unable to affect the activity of the enzyme”.
In the case of `Nc1ccn([C@@H]2O[C@H](COP(=O)(O)OP(=O)(O)OP(=O)(O)O)[C@@H](O)[C@H]2O)c(=O)n1` [CTP], the “Inhibition” value is reported as “no inhibition”.
In the case of `Nc1nc2nc[nH]c2c(=O)[nH]1` [Guanine], the IC50 is reported as over 200 µM, the “Inhibition” value is reported as “did not affect the decapping reaction” and the Ki is reported as over 0.8 µM.
`NC(=O)c1ncn([C@@H]2O[C@H](CO[P@@](=O)(O)O[P@](=O)(O)OP(=O)(O)O)[C@@H](O)[C@H]2O)n1` [Ribavirin triphosphate] showed an IC50 of over 200 µM and a Ki of over 0.8 µM.
`O=c1ccn([C@@H]2O[C@H](COP(=O)(O)OP(=O)(O)O)[C@@H](O)[C@H]2O)c(=O)[nH]1` [UDP] was tested, and the “Inhibition” value was “unable to affect the activity of the enzyme”.
For `O=c1ccn([C@@H]2O[C@H](COP(=O)(O)OP(=O)(O)OP(=O)(O)O)[C@@H](O)[C@H]2O)c(=O)[nH]1` [UTP], the “Inhibition” value was “no inhibition”.
In the case of `O=P(O)(O)OP(=O)(O)O` [pyrophosphate], the “Inhibition” value is reported as “unable to inhibit”.
In the case of `O=P(O)(O)OP(=O)(O)OP(=O)(O)O` [tripolyphosphate], the “Inhibition” value is reported as “unable to inhibit”.

Same assay, conditions: 0.25 h, read-out: Relative decapping activity (%) (100 µM analog)
`Nc1nc2nc[nH]c2c(=O)[nH]1` [Guanine] gave a remaining activity at 100 µM of 92 ± 4%.
`NC(=O)c1ncn([C@@H]2O[C@H](CO[P@@](=O)(O)O[P@](=O)(O)OP(=O)(O)O)[C@@H](O)[C@H]2O)n1` [Ribavirin triphosphate] was tested, and the remaining activity at 100 µM was 96 ± 3%.
